According to ChEMBL document CHEMBL6096641, “Discovery of the synergy between sulindac and NO expands the application of NSAIDs in cardiac complications” (Bioorg Med Chem, 2024):
Active and inactive are the calls of the source. The rule behind the calls is not given here.

Experiments:
H9c2 [1] = test: Induction of NO release ratio in rat H9c2 cells under hypoxia condition by Griess reagent based microplate reader analysis relative to control; format: functional; set-up: concentration or dose not given beside the values
[2] = target: T1, Prostaglandin G/H synthase 2 (Homo sapiens, UniProt P35354); test: Inhibition of COX-2 (unknown origin)
T1 sequence (P35354 whole entry): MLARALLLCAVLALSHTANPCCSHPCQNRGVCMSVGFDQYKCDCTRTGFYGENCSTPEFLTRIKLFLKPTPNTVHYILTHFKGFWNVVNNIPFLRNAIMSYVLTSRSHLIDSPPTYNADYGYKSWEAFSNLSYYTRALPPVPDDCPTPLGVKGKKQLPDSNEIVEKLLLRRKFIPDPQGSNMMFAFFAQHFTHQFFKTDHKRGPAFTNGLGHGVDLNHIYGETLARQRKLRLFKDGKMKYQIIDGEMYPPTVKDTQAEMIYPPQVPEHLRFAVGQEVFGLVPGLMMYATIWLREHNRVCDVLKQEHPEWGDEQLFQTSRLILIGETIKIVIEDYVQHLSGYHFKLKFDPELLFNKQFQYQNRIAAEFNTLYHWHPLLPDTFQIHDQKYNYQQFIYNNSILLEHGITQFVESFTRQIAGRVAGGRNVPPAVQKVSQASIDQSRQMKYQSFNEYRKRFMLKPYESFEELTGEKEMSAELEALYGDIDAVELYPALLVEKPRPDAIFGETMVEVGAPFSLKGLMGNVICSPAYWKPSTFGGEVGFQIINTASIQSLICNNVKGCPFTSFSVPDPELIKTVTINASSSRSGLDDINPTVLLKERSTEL

H9c2 [3] = test: Induction of NO release in rat H9c2 cells under hypoxia condition at 1 to 50 uM incubated for 4 hrs by Griess reagent based microplate reader analysis; format: functional, cell-based; conditions: dose 1-50 µM
[4] = Induction of H2S release by absorbance based analysis; format: functional
H9c2 [5] = test: Upregulation of VEFG protein expression level in rat H9c2 cells at 1 uM under hypoxia by Western blotting analysis; format: functional, cell-based
H9c2 [6] = test: Downregulation of ACE protein expression in rat H9c2 cells at 1 uM under hypoxia by Western blotting analysis; format: functional, cell-based
H9c2 [7] = test: Upregulation of HO-1 expression in rat H9c2 cells at 1 uM under hypoxia by Western blotting analysis; format: functional, cell-based
[8] = Toxicity in male Wistar rat assessed as growth curve at 10 mg/kg administered once a day for 3 days and measured after 6 days; format: organism-based; conditions: in vivo, 72 h, time 3 day
Rattus norvegicus [9] = test: Cardioprotective activity against LPS and talc powder induced pericarditis male Wistar rat assessed as improvement in cardiac swelling at 10 mg/kg administered for 3 days; format: functional, organism-based; conditions: time 3.0 day
Rattus norvegicus [10] = test: Cardioprotective activity against LPS and talc powder induced pericarditis male Wistar rat assessed as improvement in pericardium thickening at 10 mg/kg administered for 3 days; format: functional, organism-based; conditions: time 3.0 day

COc1ccc2c(c1)c(CC(=O)Oc1ccc(N(C)N=O)cc1)c(C)n2C(=O)c1ccc(Cl)cc1
Activity (H9c2 [1]): 32.85%

CC(C)Cc1ccc(C(C)C(=O)Oc2ccc(N(C)N=O)cc2)cc1 (configuration not stated)
Activity (H9c2 [1]): 12.11%
IC50 [2]: 451 µM

CC(C(=O)Oc1ccc(N(C)N=O)cc1)c1cccc(Oc2ccccc2)c1 (configuration not stated)
Activity (H9c2 [1]): 1.12%

CC(C(=O)Oc1ccc(N(C)N=O)cc1)c1cccc(C(=O)c2ccccc2)c1 (configuration not stated)
Activity (H9c2 [1]): 2.23%

Cc1cccc(Nc2ccccc2C(=O)Oc2ccc(N(C)N=O)cc2)c1C
Activity (H9c2 [1]): 34.55%

CCc1cccc2c3c([nH]c12)C(CC)(CC(=O)Oc1ccc(N(C)N=O)cc1)OCC3 (configuration not stated)
Activity (H9c2 [1]): 1.01%

CC1=C(CC(=O)Oc2ccc(N(C)N=O)cc2)c2cc(F)ccc2/C1=C\c1ccc([S+](C)[O-])cc1 (configuration not stated)
Activity (H9c2 [1]): 32.56%

COc1ccc2cc(C(C)C(=O)Oc3ccc(N(C)N=O)cc3)ccc2c1 (single isomer, unassigned)
Activity (H9c2 [1]): 44.95%

CC1=C(CC(=O)O)c2cc(F)ccc2/C1=C\c1ccc([S+](C)[O-])cc1 (configuration not stated) [SULINDAC]
Activity (H9c2 [3]): inactive
Activity [4]: 29.5 µg/L
Activity (H9c2 [5]): inactive
Activity (H9c2 [6]): Active
Activity (H9c2 [7]): Active
Activity [8]: Non-toxic
Activity (Rattus norvegicus [9]): Active
Activity (Rattus norvegicus [10]): Active
